The results in this text go back to the CATMoS acute toxicity set (Mansouri et al. 2021).

A short description of this data set: rat acute oral toxicity. The settings on record: in vivo.

The LD50 is the dose at which mortality reaches 50%. Read a high LD50 as a less toxic substance.

Where “and” joins values, the source holds several entries; their conditions need not be identical. Equal values may be shown once.

For the compound `CC(C)(C)OOC1(OOC(C)(C)C)CCCCC1`, the LD50 was determined as 13300 mg/kg.
`O=C(O)CBr` returned an LD50 of 50 mg/kg.
`OCCOCCOCCOCCO` returned an LD50 of 32700 mg/kg.
The figure for `C=Cc1cc(Br)ccc1Br` is 5790 mg/kg; for `CCNc1nc(NC(C)C)nc(SC)n1` it is 1060 mg/kg.
Then `CCCCCCCCCCCCCCCC[N+](C)(C)C`, with 450 mg/kg; and `NC1CCCCC1`, with 11 mg/kg.
For `CN`, the LD50 worked out at 80 mg/kg.
For the compound `C=CCOC(=O)OCCOCCOC(=O)OCC=C`, the LD50 came to 350 mg/kg.
Consider `NCCO`, for which the LD50 came to 1720 mg/kg.
`C=COC(C)=O`: the LD50 came out at 2900 mg/kg.
Compound `CCS(=O)CCSP(=O)(OC)OC` (stereo not drawn) registered a 50% lethal dose (LD50) of 48 mg/kg.
In the case of `CSSC`, the median lethal dose (LD50) stood at 290 mg/kg.
For the compound `OC[P+](CO)(CO)CO`, the LD50 was determined as 161 mg/kg.
The figure for `CNC(=S)NN` is 14 mg/kg; for `CO[Si](OC)(c1ccccc1)c1ccccc1` it is 2610 mg/kg; for `COCCOCCOC` it is 4760 mg/kg.
`O=P(OCC(Br)CBr)(OCC(Br)CBr)OCC(Br)CBr` (stereo not drawn) yielded an LD50 of 810 mg/kg.
On to `C#CCOS(=O)OC1CCCCC1Oc1ccc(C(C)(C)C)cc1` (stereo not drawn), for which the median lethal dose (LD50) was determined as 2200 mg/kg.
Then `Clc1cc2c(c(Cl)c1Cl)Oc1cc(Cl)c(Cl)c(Cl)c1O2`, with 0.8 mg/kg.
`O=c1oc2ccccc2c(O)c1C1CC(c2ccc(-c3ccccc3)cc2)Cc2ccccc21` (stereo not drawn): the LD50 is 0.925 mg/kg.
`CN1CCC[C@H]1c1cccnc1` showed an LD50 of 51.2 mg/kg.
Then `Cc1ccc(S(N)(=O)=O)cc1`, with 2330 mg/kg.
`CCC(C)NC1CCC(CC2CCC(NC(C)CC)CC2)CC1` (stereo not drawn) registered an LD50 of 266 mg/kg.
Turning to `CC[C@H]1OC(=O)[C@H](C)[C@@H](O[C@H]2C[C@@](C)(OC)[C@@H](O)[C@H](C)O2)[C@H](C)[C@@H](O[C@@H]2O[C@H](C)C[C@H](N(C)C)[C@H]2O)[C@](C)(O)C[C@@H](C)C(=O)[C@H](C)[C@@H](O)[C@]1(C)O`, the LD50 is 4600 mg/kg.
Compound `CC(C)(C)CC(C)(C)c1ccc(OCCO)cc1` came in with an LD50 of 1800 mg/kg.
`CCC[N+](CCC)(CCC)CCC` returned an LD50 of 3300 mg/kg.
On to `CCSC(=O)N(CC)C1CCCCC1`, for which the LD50 amounted to 1680 mg/kg.
Compound `COc1ccc(C(=O)c2ccccc2)c(O)c1` yielded an LD50 of 7400 mg/kg.
Compound `OCCOCCOCCO` showed an LD50 of 17000 mg/kg.
With `CC(=O)c1ccccc1`, the LD50 stood at 858 mg/kg.
`CCCCC(C=O)CC` (stereo not drawn) yielded an LD50 of 2600 mg/kg.
The figure for `O=C(O)c1ccccc1-c1c2cc(I)c(=O)c(I)c-2oc2c(I)c(O)c(I)cc12` is 1840 mg/kg.
The compound `CCCCCCCC/C=C\CCCCCCCCNCCCN` gave an LD50 of 500 mg/kg.
For `COC(=O)C(C)Oc1ccc(Oc2ccc(Cl)cc2Cl)cc1` (stereo not drawn), the LD50 was found to be 481 mg/kg.
The compound `CC(C)C#N` had an LD50 of 50 mg/kg.
As to `CCC(CC)Nc1c([N+](=O)[O-])cc(C)c(C)c1[N+](=O)[O-]`, the LD50 was 1050 mg/kg.
The figure for `O=C1C[C@@H]2OCC=C3CN4CC[C@]56c7ccccc7N1[C@H]5[C@H]2[C@H]3C[C@H]46` is 3.58 mg/kg; for `c1ccc2ncccc2c1` it is 331 mg/kg.
`CCCN(CCC)C(=O)SCC` had an LD50 of 916 mg/kg.
`COP(=S)(OC)Oc1ccc([N+](=O)[O-])cc1` yielded an LD50 of 6.01 mg/kg.
Regarding `CCCCCC(C)OC(=O)COc1ccc(Cl)c2cccnc12` (stereo not drawn), the LD50 came to 1100 mg/kg.
On to `CCCCN=C=O`, for which the LD50 amounted to 360 mg/kg.
Regarding `CC1(C)CC(=O)CC(C)(C)N1`, the LD50 is 1330 mg/kg.
Then `CN=C(O)Oc1cccc(C)c1`, with 268 mg/kg.
Compound `O=C1OC(=O)c2cccc3cccc1c23` showed an LD50 of 9600 mg/kg.
In the case of `O=C(Cl)CCCCl`, the 50% lethal dose (LD50) worked out at 1350 mg/kg.
In turn, `N#Cc1ccc(Cl)c(Cl)c1` registered an LD50 of 200 mg/kg.
`N#CO`: the median lethal dose (LD50) was 567 mg/kg and 582 mg/kg.
The compound `CO[Si](CCCNCCN)(OC)OC` came in with an LD50 of 1900 mg/kg.
`C=CC(=O)NC(C)(C)CS(=O)(=O)O` returned an LD50 of 1830 mg/kg.
With `ClC1=C(Cl)C(Cl)(C2(Cl)C(Cl)=C(Cl)C(Cl)=C2Cl)C(Cl)=C1Cl`, the LD50 is 1200 mg/kg.
`C=CC(=O)OCCCC` displayed an LD50 of 900 mg/kg.
